Here are results for 30 compounds from US9624170B2, “4-(piperrazin-1-yl)-pyrrolidin-2-one compounds as monoacylglycerol lipase (MAGL) inhibitors” (TAKEDA PHARMACEUTICAL COMPANY LIMITED, priority 2013, dated 2017).

Counter-ions that a name gives are not always drawn.

One experiment concerns the target T1, human MAGL (His-hMAGL) (Homo sapiens, UniProt Q99685).
T1 construct: made in house; host or cells: Escherichia coli BL21(DE3)
T1 sequence (Q99685 1-303): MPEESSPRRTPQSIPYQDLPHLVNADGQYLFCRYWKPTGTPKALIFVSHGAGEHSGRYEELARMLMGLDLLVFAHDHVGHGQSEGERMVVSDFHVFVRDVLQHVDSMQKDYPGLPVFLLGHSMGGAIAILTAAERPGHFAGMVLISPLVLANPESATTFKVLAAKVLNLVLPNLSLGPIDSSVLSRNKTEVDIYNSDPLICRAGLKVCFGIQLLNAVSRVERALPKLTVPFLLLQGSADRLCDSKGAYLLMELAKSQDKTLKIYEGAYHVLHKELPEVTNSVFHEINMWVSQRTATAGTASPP
The experiment in a line: Measurement of MAGL inhibitory activity by mass spectrometry. It counts as biochemical. The conditions noted are these: MAGL inhibitory rate, test compound 10 μM, His-hMAGL, substrate 2-arachidonylglycerol, RapidFire-mass spectrometry. In short, it runs like this:
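His-tagged human MAGL was reacted with 150 μM 2-arachidonylglycerol substrate (stock, added by 5 μL) for 10 min at room temperature, then stopped with formic acid. Arachidonic acid product was quantified by RapidFire–triple-quadrupole MS in negative SRM mode, corrected by arachidonic acid-d8, and converted to percent inhibition.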
The inhibition is the relative decrease from the control value, in per cent. With `O=C(c1nccs1)N1CCN([C@@H]2CC(=O)N(c3ccc4c(ccn4-c4cnc(C(F)(F)F)cn4)c3)C2)CC1` [Example 245, (4R)-4-(4-(1,3-thiazol-2-ylcarbonyl)piperazin-1-yl)-1-(1-(5-(trifluoromethyl)pyrazin-2-yl)-1H-indol-5-yl)pyrrolidin-2-one], the inhibition at 10 µM was 98%. On the same count and under the same terms, the figure for `O=C(c1nccs1)N1CCN([C@@H]2CC(=O)N(c3ccc4c(ccn4-c4ccnc(C(F)(F)F)c4)c3)C2)CC1` [Example 246, (4R)-4-(4-(1,3-thiazol-2-ylcarbonyl)piperazin-1-yl)-1-(1-(2-(trifluoromethyl)pyridin-4-yl)-1H-indol-5-yl)pyrrolidin-2-one] is 98%; for `Cc1ccc(-c2ccccc2)cc1N1CC(N2CCN(C(=O)c3nccs3)CC2)CC1=O` (stereo not drawn) [Example 247, 1-(4-methylbiphenyl-3-yl)-4-(4-(1,3-thiazol-2-ylcarbonyl)piperazin-1-yl)pyrrolidin-2-one] it is 99%; for `Cc1ccc(N2CC(N3CCN(C(=O)c4nccs4)CC3)CC2=O)cc1-c1ccccc1` (stereo not drawn) [Example 248, 1-(6-methylbiphenyl-3-yl)-4-(4-(1,3-thiazol-2-ylcarbonyl)piperazin-1-yl)pyrrolidin-2-one] it is 103%.

As for `Cc1c(-c2ccccc2)cccc1N1CC(N2CCN(C(=O)c3nccs3)CC2)CC1=O` (stereo not drawn) [Example 249, 1-(2-methylbiphenyl-3-yl)-4-(4-(1,3-thiazol-2-ylcarbonyl)piperazin-1-yl)pyrrolidin-2-one], the inhibition at 10 µM came to 96%. Still for that read-out and setting: under `O=C(c1nccs1)N1CCN(C2CC(=O)N(c3ccc4c(ccn4-c4ccccc4)c3)C2)CC1` (stereo not drawn) [Example 250, 1-(1-phenyl-1H-indol-5-yl)-4-(4-(1,3-thiazol-2-ylcarbonyl)piperazin-1-yl)pyrrolidin-2-one] stands 101%; under `Cc1cccc(-n2ccc3cc(N4CC(N5CCN(C(=O)c6nccs6)CC5)CC4=O)ccc32)c1` (stereo not drawn) [Example 251, 1-(1-(3-methylphenyl)-1H-indol-5-yl)-4-(4-(1,3-thiazol-2-ylcarbonyl)piperazin-1-yl)pyrrolidin-2-one], 102%; under `Cc1ccnc(-n2ccc3cc(N4CC(N5CCN(C(=O)c6nccs6)CC5)CC4=O)ccc32)c1` (stereo not drawn) [Example 252, 1-(1-(4-methylpyridin-2-yl)-1H-indol-5-yl)-4-(4-(1,3-thiazol-2-ylcarbonyl)piperazin-1-yl)pyrrolidin-2-one], 103%. Turning to `Cc1ccccc1-n1ccc2cc(N3CC(N4CCN(C(=O)c5nccs5)CC4)CC3=O)ccc21` (stereo not drawn) [Example 253, 1-(1-(2-methylphenyl)-1H-indol-5-yl)-4-(4-(1,3-thiazol-2-ylcarbonyl)piperazin-1-yl)pyrrolidin-2-one], the inhibition at 10 µM is 101%. The same measure, in the same setting: the figure for `O=C1CC(N2CCN(c3ncccn3)CC2)CN1c1cccc(I)c1` (stereo not drawn) [Example 254, 1-(3-iodophenyl)-4-(4-(pyrimidin-2-yl)piperazin-1-yl)pyrrolidin-2-one] is 95%. On the same count and under the same terms, under `Cc1cc(-n2ccc3cc(N4CC(N5CCN(C(=O)c6nccs6)CC5)CC4=O)ccc32)ccn1` (stereo not drawn) [Example 255, 1-(1-(2-methylpyridin-4-yl)-1H-indol-5-yl)-4-(4-(1,3-thiazol-2-ylcarbonyl)piperazin-1-yl)pyrrolidin-2-one] stands 101%; under `Cc1ncccc1-c1cccc(N2CC(N3CCN(c4ncccn4)CC3)CC2=O)c1` (stereo not drawn) [Example 256, 1-(3-(2-Methylpyridin-3-yl)phenyl)-4-(4-(pyrimidin-2-yl)piperazin-1-yl)pyrrolidin-2-one], 102%. On the same count and under the same terms, under `O=C(c1nccs1)N1CCN([C@@H]2CC(=O)N(c3ccc4c(ccn4-c4ncc(C(F)(F)F)cn4)c3)C2)CC1` [Example 257, (4R)-4-(4-(1,3-Thiazol-2-ylcarbonyl)piperazin-1-yl)-1-(1-(5-(trifluoromethyl)pyrimidin-2-yl)-1H-indol-5-yl)pyrrolidin-2-one hydrochloride] stands 99%; under `Cc1nc(C)c(-c2cccc(N3CC(N4CCN(C(=O)c5nccs5)CC4)CC3=O)c2)s1` (stereo not drawn) [Example 258, 1-(3-(2,4-dimethyl-1,3-thiazol-5-yl)phenyl)-4-(4-(1,3-thiazol-2-ylcarbonyl)piperazin-1-yl)pyrrolidin-2-one(optical isomer)], 102%. Consider `O=C(c1nccs1)N1CCN(C2CN(c3ccc(Oc4ccccc4)cc3)C(=O)C2O)CC1` (stereo not drawn) [Example 260, 3-Hydroxy-1-(4-phenoxyphenyl)-4-(4-(1,3-thiazol-2-ylcarbonyl)piperazin-1-yl)pyrrolidin-2-one], for which the inhibition at 10 µM came out at 84%. Still for that read-out and setting: the figure for `O=C(c1nccs1)N1CCN(C2CN(c3ccc(Oc4ccccc4)cc3)C(=O)C2F)CC1` (stereo not drawn) [Example 261, 3-Fluoro-1-(4-phenoxyphenyl)-4-(4-(1,3-thiazol-2-ylcarbonyl)piperazin-1-yl)pyrrolidin-2-one] is 100%. The same measure, in the same setting: the figure for `Cc1cc(-c2ccc(N3CC(N4CCN(C(=O)c5nccs5)CC4)CC3=O)cc2)ccn1` (stereo not drawn) [Example 264, 1-(4-(2-methylpyridin-4-yl)phenyl)-4-(4-(1,3-thiazol-2-ylcarbonyl)piperazin-1-yl)pyrrolidin-2-one] is 92%; for `Cc1ccc(-c2ccc(N3CC(N4CCN(C(=O)c5nccs5)CC4)CC3=O)cc2)cn1` (stereo not drawn) [Example 265, 1-(4-(6-methylpyridin-3-yl)phenyl)-4-(4-(1,3-thiazol-2-ylcarbonyl)piperazin-1-yl)pyrrolidin-2-one] it is 97%; for `Cc1ccccc1-c1cccc(N2CC(N3CCN(c4ncccn4)CC3)CC2=O)c1` (stereo not drawn) [Example 268, 1-(2′-methylbiphenyl-3-yl)-4-(4-(pyrimidin-2-yl)piperazin-1-yl)pyrrolidin-2-one] it is 101%. On the same count and under the same terms, under `O=C1CC(N2CCN(c3ncccn3)CC2)CN1c1cccc(-c2ccccc2Cl)c1` (stereo not drawn) [Example 269, 1-(2′-chlorobiphenyl-3-yl)-4-(4-(pyrimidin-2-yl)piperazin-1-yl)pyrrolidin-2-one] stands 101%; under `O=C(c1cscn1)N1CCN(C2CC(=O)N(c3ccc4c(ccn4-c4ccc(F)cc4)c3)C2)CC1` (stereo not drawn) [Example 270, 1-(1-(4-fluorophenyl)-1H-indol-5-yl)-4-(4-(1,3-thiazol-4-ylcarbonyl)piperazin-1-yl)pyrrolidin-2-one], 100%.

As to `O=C(c1nccs1)N1CCN([C@@H]2CC(=O)N(c3ccc4c(c3)CCN4c3ncc(C(F)(F)F)cn3)C2)CC1` [Example 271, (4R)-4-(4-(1,3-thiazol-2-ylcarbonyl)piperazin-1-yl)-1-(1-(5-(trifluoromethyl)pyrimidin-2-yl)-2,3-dihydro-1H-indol-5-yl)pyrrolidin-2-one], the inhibition at 10 µM turned out to be 101%.

On to `Cc1ncnc(C)c1-c1cccc(N2CC(N3CCN(C(=O)c4nccs4)CC3)CC2=O)c1` (stereo not drawn) [Example 273, 1-(3-(4,6-Dimethylpyrimidin-5-yl)phenyl)-4-(4-(1,3-thiazol-2-ylcarbonyl)piperazin-1-yl)pyrrolidin-2-one], for which the inhibition at 10 µM was determined as 100%. Same read-out and setting: under `Cc1cccc(-c2ccc(N3CC(N4CCN(C(=O)c5nccs5)CC4)CC3=O)cc2)n1` (stereo not drawn) [Example 274, 1-(4-(6-methylpyridin-2-yl)phenyl)-4-(4-(1,3-thiazol-2-ylcarbonyl)piperazin-1-yl)pyrrolidin-2-one] stands 96%; under `O=C(c1nccs1)N1CCN(C2CC(=O)N(c3cccc(-c4ccc(F)cc4Cl)c3)C2)CC1` (stereo not drawn) [Example 275, 1-(2′-chloro-4′-fluorobiphenyl-3-yl)-4-(4-(1,3-thiazol-2-ylcarbonyl)piperazin-1-yl)pyrrolidin-2-one], 103%. In the case of `O=C(c1nccs1)N1CCN(C2CC(=O)N(c3ccc(F)c(-c4ccc(F)cc4Cl)c3)C2)CC1` (stereo not drawn) [Example 276, 1-(2′-chloro-4′,6-difluorobiphenyl-3-yl)-4-(4-(1,3-thiazol-2-ylcarbonyl)piperazin-1-yl)pyrrolidin-2-one], the inhibition at 10 µM is 102%. Take `O=C(c1nccs1)N1CCN(C2CC(=O)N(c3ccc(F)c(-c4ccccc4Cl)c3)C2)CC1` (stereo not drawn) [Example 277, 1-(2′-chloro-6-fluorobiphenyl-3-yl)-4-(4-(1,3-thiazol-2-ylcarbonyl)piperazin-1-yl)pyrrolidin-2-one]: the inhibition at 10 µM was 98%. For `Cc1cc(C)cc(-n2ccc3cc(N4CC(N5CCN(C(=O)c6nccs6)CC5)CC4=O)ccc32)c1` (stereo not drawn) [Example 279, 1-(1-(3,5-dimethylphenyl)-1H-indol-5-yl)-4-(4-(1,3-thiazol-2-ylcarbonyl)piperazin-1-yl)pyrrolidin-2-one], the inhibition at 10 µM is 101%.

Still in this experiment, the particulars now being: MAGL inhibitory rate, test compound 10 μM, His-hMAGL, substrate 2-arachidonylglycerol, RapidFire-mass spectrometry; 10 µM.
What is called % inhibition is the relative decrease from the control value, in per cent. In the case of `O=C(c1nccs1)N1CCN(C2CC(=O)N(c3cccc(-c4cccnc4Cl)c3)C2)CC1` (stereo not drawn) [Example 266, 1-(3-(2-chloropyridin-3-yl)phenyl)-4-(4-(1,3-thiazol-2-ylcarbonyl)piperazin-1-yl)pyrrolidin-2-one(optical isomer)], the “% inhibition at 10 μM” value stood at 99%. Still for that read-out and setting: under `O=C1Cc2ccc(-c3cccc(N4CC(N5CCN(C(=O)c6nccs6)CC5)CC4=O)c3)cc2N1` (stereo not drawn) [Example 267, 6-(3-(2-oxo-4-(4-(1,3-thiazol-2-ylcarbonyl)piperazin-1-yl)pyrrolidin-1-yl)phenyl)-1,3-dihydro-2H-indol-2-one(optical isomer)] stands 102%.
